In paper PMC2765805 (Journal of medicinal chemistry, 2009):
Like-named read-outs stand apart in the source and are kept apart here.

Legend:
[1] = molecular target: T1, human A3 adenosine receptor (Homo sapiens, UniProt P0DMS8); experiment: biochemical; set-up: species or system CHO; conditions: read-out: % inhibition
T1 sequence (P0DMS8 1-318): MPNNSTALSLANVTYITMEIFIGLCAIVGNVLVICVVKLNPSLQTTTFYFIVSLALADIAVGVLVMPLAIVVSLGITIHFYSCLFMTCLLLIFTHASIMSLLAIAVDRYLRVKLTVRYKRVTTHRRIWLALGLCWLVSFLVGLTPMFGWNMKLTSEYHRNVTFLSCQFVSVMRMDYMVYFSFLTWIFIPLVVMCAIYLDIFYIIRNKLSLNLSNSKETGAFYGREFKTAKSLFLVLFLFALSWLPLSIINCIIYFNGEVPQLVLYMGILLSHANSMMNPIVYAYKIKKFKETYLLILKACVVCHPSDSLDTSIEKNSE

[2] = molecular target: T1, human A3 adenosine receptor; experiment: biochemical; set-up: species or system CHO; conditions: read-out: % inhibition; remark: listed apart in the source

Clc1ccc(Nc2nc3ccccc3c3[nH]c(C4CCCCC4)nc23)cc1Cl [compound 3]
inhibition at 10 µM [1]: 40.5 ± 13.4% | inhibition at 10 µM [2]: 40.5 ± 13.4%
